US9868763B2, “Modulators of protease activated receptors” (The University of Queensland, priority 2011, dated 2018)

Key:
PAR2 [1] = biological target: T1, PAR2 (Homo sapiens, UniProt P55085); details: cited from earlier work
T1 sequence (P55085 26-397): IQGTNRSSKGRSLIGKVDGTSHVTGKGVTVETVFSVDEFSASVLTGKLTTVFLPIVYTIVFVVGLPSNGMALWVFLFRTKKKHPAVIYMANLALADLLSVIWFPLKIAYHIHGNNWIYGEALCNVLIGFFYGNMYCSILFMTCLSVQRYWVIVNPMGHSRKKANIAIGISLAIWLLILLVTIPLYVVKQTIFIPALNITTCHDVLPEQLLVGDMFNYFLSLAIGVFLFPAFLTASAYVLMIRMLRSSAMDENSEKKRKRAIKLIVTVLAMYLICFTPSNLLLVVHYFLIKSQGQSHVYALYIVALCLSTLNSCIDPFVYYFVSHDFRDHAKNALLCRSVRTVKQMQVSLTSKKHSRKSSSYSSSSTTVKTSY

[2] = Stability in rat liver homogenate; format: in vitro ADME, Wistar rat; details: 37 °C, up to 180 min
Method: Blood and liver is collected form non-drug dosed male and female Wistar rats (aged 8-9 weeks, 200-250 g and 250-300 g respectively). Bloods are centrifuged at 8 K rpm for 5 min. Plasma are pooled and stored at −80° C. for later use. The rat livers are homogenized, diluted with three volumes of PBS, cloth filtered. The filtrate is used directly for stability studies.
Each compound is dissolved in DMSO to make 5 mM stock solution. 10 μL of the stock is diluted with either rat plasma or liver homogenate (490 μL) to make up a starting concentration of […] (triplicates). The mixtures are vortexed and incubated at 37° C. At each time point of 0, 30, 60 and 180 minutes, 100 μL of the mixture is taken and diluted with 300 μL of acetonitrile. The mixture is vortexed and centrifuged. 350 μL of the liquid is transferred into a microfuge tube and concentrated using a rotational vacuum concentrator (Christ Beta-RVC, supplied by Quantum Scientific). 100 μL of acetonitrile-water (9:1, v/v) is added to the residue, vortexed and immediately analysed by LCMS/MS. Data from these experiments are expressed as percent of peak area recorded from the LCMS/MS trace at time zero (t0).

[3] = system: 2furoyl-LIGRLO-NH2-induced paw oedema; test: PAR2 agonist-induced paw oedema; format: in vivo, Wistar rat; details: 10 mg/kg p.o. in olive oil, agonist 350 μg/paw 2 h after oral dose
Method: The methods used are based on those previously described (Kelso, E. B., et al. Arthritis Rheum 2007, 56, 765-71; Kelso, E. B., et al. J Pharmacol Exp Ther 2006, 316, 1017-24; and Vergnolle, N. J Immunol 1999, 163, 5064-9). Male Wistar rats (n=3 per group) are used. Briefly, rats are given either 5 or 10 mg/kg of a compound of the present invention (p.o. via gavage in olive oil, approx. 500 μL, weight adjusted). Control animals receive only olive oil (500 μL p.o.). Two hours later, the PAR2 agonist 2-furoyl-LIGRLO (350 μg/paw in saline, 100 μL) is injected into the plantar surface (i.pl.) of the right paw pad using a 30 G needle. The left paw acts as a control, receiving saline only. Paw thickness and width are measured after 30 minutes and hourly using digital calipers (World Precision Instruments, USA) and swelling is calculated in area (mm^2; thickness multiplied by width) and expressed as a percentage change from baseline of each individual paw.
Based on previous methods (Kelso E B et al., J Pharmacol Exp Ther 2006, 316(3):1017-24; Suen J Y et al., Br J Pharmacol 2011, doi: 10.1111/j.1476-5381.2011.01610.x.), PAR2 antagonist 52 (10 mg/kg s.c.; n=4), ENMD-1068 (100 mg/kg s.c.; n=4) or vehicle control (DMSO s.c.; n=2) were administered to male Wistar rats. Baseline paw thickness and width were measured using digital calipers (World Precision Instruments, USA) expressed in area (mm^2; thickness×width). Fifteen minutes later, 2Furoyl-LIGLRO-NH2 (350 μg/paw in 100 μL saline) was injected into of the right hind paw pad (intraplantar, i.pl.). The left hind paw acted as a control, receiving saline only. In a separate experiment, vehicle (500 μL olive oil) versus PAR2 antagonist 52 (10 mg/kg p.o. in 500 μL olive oil) only were administered orally to two groups of rats (4 per group). Two hours later, β-tryptase (human recombinant lung, 20 μg in 100 μL saline) was injected into the right hind paw pad (vehicle in left for control) of all animals in each group. In all experiments, paw swelling was measured and expressed in area (mm^2; thickness×width) and plotted as % change from baseline of each individual paw.

PAR2 [4] = biological target: T1, PAR2; test: PAR2 agonist inhibition (antagonism): intracellular Ca2+ release in HT29 cells; format: cell-based; set-up: endogenous in cells; host or cells: HT29 (human colorectal adenocarcinoma); details: other ligands; inhibiting Ca2+ release in HT29 cells; 30 min pre-incubation, agonist at EC80
Method: Cells are seeded overnight in 96-well black walled, clear bottomed, plate at approximately 2×10^4 to 4×10^5 cells per well. […] The cells are then washed twice with HBSS and transferred to a Polarstar spectrofluorimeter (BMG, Durham N.C.).
The cells are prepared as outlined above then treated with the ‘putative’ antagonist 30 min prior to the addition of either trypsin or a synthetic agonist at a concentration equal to the agonists EC80.
The cells were then treated with 1 μM of the PAR2 agonist 2f-LIGRLO-NH2 (FIG. 2A, n=5) or 100 nM Trypsin (FIG. 2B, n=1). Each data point represents mean±SEM. Net changes in fluorescence were calculated as a percentage relative to the maximum response given 1 μM 2f-LIGRLO-NH2 or 100 nM Trypsin. Changes in fluorescence (% response) were plotted against logarithmic compound concentrations. The half maximal inhibitory concentration (IC50) values were derived from the dose response curve using a nonlinear regression curve in Graphpad Prism v5.

[5] = system: TNBS-induced chronic colitis; test: TNBS-induced chronic colitis model; format: in vivo, rat; details: 52 10 mg/kg/day, sulfasalazine 100 mg/kg/day p.o.
Method: On day 0, rats were weighed, given respective treatments of either sulfasalazine (100 mg/kg in olive oil p.o.), compound 52 (10 mg/kg in olive oil), or vehicle (500 l olive oil p.o.), and fasted for 24 h with water supplied ad libitum. The next day (day 1), rats were weighed, dosed with respective compound, and anesthetized with isofluorane. A polyethylene catheter was inserted intrarectally (8 cm). Control and drug-treated animals received an intracolonic dose of TNBS (80 mg/kg in saline and 250 l, 50% ethanol in water) (Fiorucci at al., 2001). Sham animals received vehicle only, with TNBS replaced by equivolume water. Rats were maintained in an inclined position (40°) for 30 min, then allowed to recover with food and water supplied. Rats were dosed daily with the respective compound, weighed, and scored for general health and disease progression. All rats were sacrificed on day 8 of experimentation unless they were sacrificed earlier. Disease progression and post-mortem colonic histopathology was scored by the following methods. PAR2 and tryptase co-localization were investigated by using immunohistochemistry.
DAI for both acute and chronic models was assessed and scored by an expert blinded to treatments. Scores incorporated mobility, gastrointestinal pathology, discomfort, and generalized sickness behaviour criteria (each scored 0-3). Any animal that reached stage 3 in any criteria was euthanized by CO2 inhalation and recorded as a disease-related mortality. Scores were summed and expressed as total disease score (maximum 12). DAI was measured at endpoint only (10 h) in the acute study and daily in the chronic TNBS study.
Colons were dissected post-mortem and given a macroscopic disease score based on that described previously (Bobin-Dubigeon et al., 2001) with some minor alterations (maximal score 14). The entire colon length was removed between the ileocolic and colorectal junction. Length and maximal distension width were measured. Sections of affected colon were taken for biochemical analysis, histology, and wet/dry weight.

PAR2 [6] = biological target: T2, PAR2 (Mus musculus, UniProt P55086); test: Intracellular calcium mobilization in MIN6 beta cells; format: cell-based; details: concentration-dependent
T2 construct: endogenous in cells; host or cells: MIN6 (mouse pancreatic beta cell line)
T2 sequence (P55086 26-399): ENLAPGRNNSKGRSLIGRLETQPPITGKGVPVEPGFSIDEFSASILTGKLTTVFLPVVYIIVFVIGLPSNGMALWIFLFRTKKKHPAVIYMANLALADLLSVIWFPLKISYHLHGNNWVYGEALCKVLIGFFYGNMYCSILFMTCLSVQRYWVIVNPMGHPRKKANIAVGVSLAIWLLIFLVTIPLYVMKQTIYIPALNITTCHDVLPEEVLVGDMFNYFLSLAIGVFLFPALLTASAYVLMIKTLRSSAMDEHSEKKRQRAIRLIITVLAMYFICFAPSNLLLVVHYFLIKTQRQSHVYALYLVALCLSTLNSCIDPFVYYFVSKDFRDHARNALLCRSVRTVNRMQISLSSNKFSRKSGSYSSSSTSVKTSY
Method: Results: Pathogenesis of pancreatic dysfunction is linked to chronic nutritional surplus and elevated fatty acids, so in vivo and in vitro effects of compound 52 were evaluated on rat pancreas and mouse MIN6 beta cells. […] PAR2 agonists and compound 52 were further evaluated in vitro for glucose-stimulated insulin secretion (GSIS) and intracellular calcium mobilization in mouse MIN6 beta cells.

2-furoyl-LIGRL-NH2
agonist potency higher than SLIGRL-NH2 (PAR2 [1]): ~20 fold | selectivity among PARs (PAR2 [1]): selective for PAR2 over PAR1 and PAR4

CC[C@H](C)[C@H](NC(=O)[C@H](CC1CCCCC1)NC(=O)c1ccno1)C(=O)NCc1ccccc1OC [Compound 18, 5-isoxazoyl-Cha-Ile-aminomethyl-(2-methoxy)phenyl]
stability in rat liver homogenate [2]: decomposed to varied degree | paw swelling induced by 2-f-LIGRLO-NH2 [3]: reduced the paw swelling

CC[C@H](C)[C@H](NC(=O)[C@H](CC1CCCCC1)NC(=O)c1ccno1)C(=O)N1CCC(c2ccccc2)CC1 [Compound 30, 5-isoxazoyl-Cha-Ile-(4-phenyl)piperidine]
stability in rat liver homogenate [2]: decomposed to varied degree | paw swelling induced by 2-f-LIGRLO-NH2 [3]: reduced the paw swelling

CC[C@H](C)[C@@H](NC(=O)[C@@H](N)CC1CCCCC1)C(=O)N1CCC2(C=Cc3ccccc32)CC1 [Compound 41]
IC50 (PAR2 [4]): 17 µM

CC[C@H](C)[C@@H](NC(=O)[C@H](CC1CCCCC1)NC(=O)c1cc(N)no1)C(=O)N1CCC2(C=Cc3ccccc32)CC1 [Compound 42, 5-(3-amino-isoxazoyl)-Cha-Ile-spiro[indene-1,4′-piperidine]]
stability in rat liver homogenate [2]: decomposed to varied degree | paw swelling induced by 2-f-LIGRLO-NH2 [3]: reduced the paw swelling

CO[C@H](C)[C@@H](NC(=O)[C@H](CC1CCCCC1)NC(=O)c1ccno1)C(=O)N1CCC2(C=Cc3ccccc32)CC1 [Compound 44, 5-isoxazoyl-Cha-Thr(Me)-spiro[indene-1,4′-piperidine]]
stability in rat liver homogenate [2]: decomposed to varied degree | paw swelling induced by 2-f-LIGRLO-NH2 [3]: reduced the paw swelling

CC[C@H](C)[C@@H](NC(=O)[C@H](CC1CCCCC1)NC(=O)c1nc[nH]n1)C(=O)N1CCC2(C=Cc3ccccc32)CC1 [Compound 45]
IC50 (PAR2 [4]): 15 µM

CC[C@H](C)[C@@H](NC(=O)[C@H](CC1CCCCC1)NC(=O)c1cc(C)on1)C(=O)N1CCC2(C=Cc3ccccc32)CC1 [Compound 46]
IC50 (PAR2 [4]): 25 µM

CC[C@H](C)[C@@H](NC(=O)[C@H](CC1CCCCC1)NC(=O)c1c[nH]cn1)C(=O)N1CCC2(C=Cc3ccccc32)CC1 [Compound 47]
IC50 (PAR2 [4]): 10 µM

CC[C@H](C)[C@@H](NC(=O)[C@H](CC1CCCCC1)NC(=O)C1CCNCC1)C(=O)N1CCC2(C=Cc3ccccc32)CC1 [Compound 48]
IC50 (PAR2 [4]): 50 µM

CC[C@H](C)[C@@H](NC(=O)[C@H](CC1CCCCC1)NC(=O)C1CCC(=O)N1)C(=O)N1CCC2(C=Cc3ccccc32)CC1 (some centres unmarked) [Compound 49]
IC50 (PAR2 [4]): 25 µM

CC[C@H](C)[C@@H](NC(=O)[C@H](CC1CCCCC1)NC(=O)C1CCCN1)C(=O)N1CCC2(C=Cc3ccccc32)CC1 (some centres unmarked) [Compound 50]
IC50 (PAR2 [4]): 50 µM

CC[C@H](C)[C@H](C(=O)N1CCC2(C=Cc3ccccc32)CC1)N(C)C(=O)[C@@H](N)CC1CCCCC1 [Compound 51]
IC50 (PAR2 [4]): 5 to 10 µM

CC[C@H](C)[C@@H](NC(=O)[C@H](CC1CCCCC1)NC(=O)c1ccno1)C(=O)N1CCC2(CCc3ccccc32)CC1 [Compound 53]
IC50 (PAR2 [4]): 3 µM

O=C(O)c1cc(/N=N/c2ccc(S(=O)(=O)Nc3ccccn3)cc2)ccc1O [sulfasalazine, reference compound]
TNBS-mediated mortality [5]: 33.3% | DAI compared with TNBS-controls ([5]; from day 2 onward): marked improvements in DAI

SLIGRL-NH2
intracellular calcium release in MIN6 beta cells (PAR2 [6]): activated intracellular calcium release

trypsin
intracellular calcium release in MIN6 beta cells (PAR2 [6]): activated intracellular calcium release
